Holding throughout (assay type): cell-based, Human
One data set concerns Caco-2 cells. Kind of data set: Cytotoxicity assay (MTS) in confluent non-differentiated Caco-2 cells. Conditions: isolated compounds; Caco-2, 24 hours, mean ± SD. On the procedure:
(§1) Human Caco-2 and HT29 cell lines were obtained from Deutsche Sammlung von Mikroorganismen und Zellkulturen (DSMZ, Germany) and American Type Culture Collection (ATCC, USA), respectively. These cell lines were cultured in RPMI 1640 medium supplemented with 10% of heat-inactivated fetal bovine serum (FBS) and 1% […] (PS). Cells were maintained at 37°C with 5% CO2 in a humidified incubator and routinely grown as a monolayer in 75 cm^2 culture flasks. The cell culture medium and supplements were purchased from Invitrogen (Gibco, Invitrogen Corporation, UK). Cytotoxicity assay was performed using confluent and non-differentiated Caco-2 cells, a model considered to assess the effect of chemical/food compounds and nano/microparticles on the intestinal function since it shares characteristics of the enterocytes. The assay was performed as previously described by Rodrigues et al.[71]. Briefly, Caco-2 cells were seeded into 96-well plates at a density of 2 × 10^4 cells/well and allowed to grow for 7 days, with medium renewal every 48 hours. At day 7, cells were incubated with the samples diluted in culture medium. Cells incubated only with culture medium were considered as control. After 24 hours, cells were washed once with PBS (Sigma-Aldrich, USA) and cell viability was assessed using CellTiter 96® AQueous One Solution Cell Proliferation Assay (Promega, USA) containing MTS reagent, according to manufacturer's instructions. The absorbance was measured at 490 nm using a Spark® 10 M Multimode Microplate Reader (Tecan Trading AG, Switzerland) and cell viability was expressed in terms of percentage of living cells relatively to the control. At least three independent experiments were performed in triplicate. All data were expressed as mean ± standard errors (SD). GraphPad Prism 6 software was used to calculate EC50 values (the concentration of sample necessary to decrease 50% of cell population) and to analyse significant differences between data set through One-Way Analysis of Variance (ANOVA) following Dunnett's multiple comparison tests.

For data set [1], the system named is HT29 cells. The experiment in a line: Antiproliferative assay in HT29 cell monolayer (MTS). The settings on record: isolated compounds, HT29, 24 hours, mean ± SD. The method, then: Human Caco-2 and HT29 cell lines were obtained from Deutsche Sammlung von Mikroorganismen und Zellkulturen (DSMZ, Germany) and American Type Culture Collection (ATCC, USA), respectively. These cell lines were cultured in RPMI 1640 medium supplemented with 10% of heat-inactivated fetal bovine serum (FBS) and 1% […] (PS). Cells were maintained at 37°C with 5% CO2 in a humidified incubator and routinely grown as a monolayer in 75 cm^2 culture flasks. The cell culture medium and supplements were purchased from Invitrogen (Gibco, Invitrogen Corporation, UK). Antiproliferative effect of […] and standard compounds was evaluated in HT29 cells, as described elsewhere. Briefly, cells were seeded at a density of 1 × 10^4 cells/well in 96-well culture plates. After 24 hours cells were incubated with different concentrations of the samples diluted in culture medium. Cells incubated only with culture medium were considered as control. Cell proliferation was measured after 24 hours using MTS, as mentioned above. Results were expressed in terms of percentage of living cells relatively to the control. At least three independent experiments were performed in triplicate. All data were expressed as mean ± standard errors (SD). GraphPad Prism 6 software was used to calculate EC50 values (the concentration of sample necessary to decrease 50% of cell population) and to analyse significant differences between data set through One-Way Analysis of Variance (ANOVA) following Dunnett's multiple comparison tests.

Data set [2] is described as follows: Cytotoxicity assay (MTS) in confluent non-differentiated Caco-2 cells. The settings on record: human, confluent, non-differentiated Caco-2 cells; isolated compounds; Caco-2, 24 hours, mean ± SD. On the procedure: as §1
For data set [3], the system named is HT29 cells. The experiment in a line: Cell cycle assessment by flow cytometry. The settings on record: HT29, 24 hours, non-cytotoxic concentrations. The method, then: HT29 cell line was seeded at a density of 1 × 10^6 cells in a 25 cm^2 culture flask for 24 hours. Then, cells were incubated in different concentrations of the samples diluted in culture medium and culture medium alone (as control) for 24 hours. For flow cytometry analysis of DNA content, bare nuclei were prepared as described elsewhere. Briefly, cells were detached from the culture flasks with trypsin-EDTA 0.5% and washed one time with cold PBS. Finally, 1 × 10^6 cells were re-suspended in 1 mL of staining solution containing […] of Propidium Iodide (Sigma-Aldrich, USA), 1.5% (v/v) of Triton X-100 (Sigma-Aldrich, USA), 0.7 U/mL of DNase/protease-free Ribonuclease A (Thermo Scientific, USA) and 0.01 M of NaCl, followed by incubation at room temperature in the dark for 2 hours. Cell cycle was assessed by flow cytometry, using a CyFlow space (Partec GmbH) instrument, registering 30.000 events/sample as described previously.

Data set [4] concerns HT29 cells. The experiment in a line: Caspase-3 activity induction (apoptosis). Conditions: HT29, 24 hours, 2 mM. The method, then: Apoptosis was evaluated by caspase-3 activity using NucView488TM and MitoView633TM Apoptosis Assay Kit (Biotium, USA) that allows the staining of living cells with a far-red fluorescent dye MitoView633TM, while the intracellular caspase-3/7 activity and cells nuclei morphological changes were stained with bright green fluorescent dye NucView488TM. HT29 cells were seeded at a density of 40.000 cell/cm^2 at 24-well plate for 24 hours. Then, cells were incubated another 24 hours with different concentrations of the samples diluted in culture medium and culture medium alone (as control). Staining was performed with 200 μL/well of culture medium containing 1 μL of NucView488TM and 1 μL of MitoView633TM for 2 hours.

We go through 4 compounds from article PMC6797721, “Unveil the Anticancer Potential of Limomene Based Therapeutic Deep Eutectic Solvents” (Scientific Reports, 2019).

With `CCCCCCCCCC(=O)O` [CA, Capric acid], the EC50 in the data set on Caco-2 cells came out at 1330 ± 223 µM; in the data set on HT29 cells [1], 341 ± 81 µM.

`CC(C)Cc1ccc(C(C)C(=O)O)cc1` (centres unmarked) [IBU, Ibuprofen] returned an EC50 at 24 h in data set [2] of 2890 ± 59 µM. In the data set with HT29 cells [1] (Homo sapiens, HT-29), the EC50 turned out to be 2350 ± 88 µM. Also, in the data set with HT29 cells [3], the “Effect on cell cycle” value is listed as “promoted cell cycle arrest in G1-phase”.

Regarding `CC1CCC(C(C)C)C(O)C1` (centres unmarked) [Menthol, menthol], the midpoint of the response in data set [2], the EC50 at 24 h, lay at 8080 ± 810 µM. The concentration for a half-maximal effect (EC50) in the data set with HT29 cells [1] (Homo sapiens, HT-29) came to 4730 µM.

For the compound S-Limonene, the EC50 came to 2640 ± 108 µM with Caco-2 cells and 661 ± 25 µM with HT29 cells [1]. The “Effect on cell cycle” value with HT29 cells [3] was “promoted cell cycle arrest in G1-phase”. The “Induction of apoptosis (caspase-3 activity)” value in the data set with HT29 cells [4] is on record as “capable of inducing apoptosis via caspase-3 activity”.
